According to patent publication US20090082427A1, “Composition comprising wortmannin and its topical use for reducing human hair growth” (Reckitt Benckiser (UK) Limited, priority 2005, published 2009):

Experiments:
Format in all cases: cell-based, human
[1] = tested on: Anagen (IV) intact hair follicles; experiment: growth of isolated intact Anagen (IV) hair follicles, length increase after 8 days; conditions: CM 26, CV 9
Procedure: A study was carried out to assess the effects of wortmannin on growth of Anagen (IV) intact hair follicles isolated intact from 2 females.
(§1) A composition was prepared comprising wortmannin at 10 milli-molar in a vehicle of dimethyl sulfoxide (DMSO). The levels of wortmannin were such that when the composition was added to the growth medium in the experiments, the level of wortmannin in the experimental medium was 50, 70, 100 or 140 micro-molar and the respective level of DMSO was 0.5%, 0.7%, 1.0%, 1.4% by weight.
(§2) The control experiments were carried out using as the growth medium CM (control medium only as detailed below) and CV (control medium containing the DMSO vehicle but free of wortmannin). The experiments using the wortmannin composition were carried out using the wortmannin compositions in the control medium.
For experiments with intact hair follicle, Control Medium was Williams E medium supplemented with fungizone, penicilin/streptomycin, L-glutamine, insulin-like growth factor and hydrocortisone.
(§3) Results in terms of percentage cell number change after 8 days of the cells/follicles in the compositions were as follows in table 1.

[2] = tested on: follicular dermal papilla fibroblasts; experiment: cell proliferation of follicular dermal papilla fibroblasts, cell number after 8 days; conditions: wortmannin 70 μm in medium, CV = 100
Procedure: (§4) A study was carried out to assess the effects of wortmannin on cell proliferation for dermal fibroblasts, follicular dermal papilla fibroblasts derived from 5 normal adults (3 females and 2 males).
as §1, §2
(§5) For experiments with dermal fibroblasts and follicular dermal papilla fibroblasts, Control Medium was RPMI 1640 media supplemented with penicillin/streptomycin, L-glutamine and Foetal Calf Serum.
as §3

[3] = tested on: hair follicle keratinocytes; experiment: cell proliferation of hair follicle keratinocytes, cell number after 8 days; conditions: CV = 100
Procedure: A study carried out to assess the effects of wortmannin on cell proliferation for hair follicle keratinocytes was performed on cells from 1 normal healthy individual.
as §1, §2
For experiments with hair follicle keratinocytes, Control Medium was keratinocyte serum-free medium (KSF-M) medium supplemented with penicillin/streptomycin, L-glutamine, epidermal growth factor and bovine pituitary extract.
as §3

dermal fibroblasts = experiment: cell proliferation of dermal fibroblasts, cell number after 8 days; conditions: wortmannin 70 μm in medium, CV (medium + DMSO vehicle) = 100
Procedure: as §4, §1, §2, §5, §3

For `COC[C@H]1OC(=O)c2coc3c2[C@@]1(C)C1=C(C3=O)[C@@H]2CCC(=O)[C@@]2(C)C[C@H]1OC(C)=O` [wortmannin, 11-(acetyloxy)-1,6b,7,8,9a,10,11,11b-octahydro-1-(methoxymethyl)-9a,11b-di-methyl-[1S-(1α, 6bα,9aβ,11α, 11bβ)]-3H-furo[4,3,2-de]indeno[4,5-h]-2-benzopyran-3,6,9-trione], the “Whole hair follicles (length increase in %)” value ([1]; wortmannin 70 μm in medium) was 4%, the “Whole hair follicles (length increase in %)” value ([1]; wortmannin 140 μm in medium) was 4% and the “dermal papilla fibroblasts percentage cell number (normalized on CV results)” value [2] was 34%. The “Hair follicle keratinocytes percentage cell number (normalized on CV results)” value ([3]; wortmannin 50 μm in medium) was 75%, the “Hair follicle keratinocytes percentage cell number (normalized on CV results)” value ([3]; wortmannin 70 μm in medium) was 40% and the “Hair follicle keratinocytes percentage cell number (normalized on CV results)” value ([3]; wortmannin 100 μm in medium) was 30%. For the same compound, the “Dermal fibroblasts percentage cell number (normalized on CV results)” value (dermal fibroblasts) was 25%.
